The test system of data set [1] is Rat. Put plainly: concentration in plasma after dosing. Conditions: dosed: Wyeth-14643, 2.0 mg/kg, oral, Male, Sprague-Dawley.
Data set [2] concerns Rat. The experiment in a line: concentration in plasma after dosing. Conditions: 1 h; dosed: Wyeth-14643; 5.0 mg/kg; oral; Male; Sprague-Dawley.
Data set [3] relates to Rat. Put plainly: concentration in plasma after dosing. The conditions noted are these: dosed: Wyeth-14643, 5.0 mg/kg, oral, Male, Sprague-Dawley.
Data set [4] concerns Rat. The experiment in a line: concentration in plasma after dosing. The conditions noted are these: 6 h; dosed: Bis 2-Chloroethoxy Methane; 20 mg/kg; iv; Female; F344.
Data set [5] deals with Rat. The experiment in a line: concentration in heart after dosing. Conditions: 2 h; dosed: Bis 2-Chloroethoxy Methane; 20 mg/kg; iv; Male; F344.
Data set [6] has as its system Rat. Put plainly: concentration in plasma after dosing. Conditions: 2 h; dosed: Bis 2-Chloroethoxy Methane; 20 mg/kg; iv; Male; F344.
The test system of data set [7] is Rat. The experiment in a line: concentration in plasma after dosing. Conditions: 3 h; dosed: Bis 2-Chloroethoxy Methane; 20 mg/kg; iv; Female; F344.
The subject of data set [8] is Rat. The experiment in a line: concentration in plasma after dosing. Conditions: dosed: Bis 2-Chloroethoxy Methane, 40 mg/kg, iv, Male, Harlan Sprague Dawley.
For data set [9], the system named is Rat. Put plainly: concentration in thymus after dosing. The conditions noted are these: 20 min; dosed: Bis 2-Chloroethoxy Methane; 20 mg/kg; iv; Female; F344.
Data set [10] deals with Rat. Put plainly: concentration in brain after dosing. The conditions noted are these: 12 h; dosed: Fluorotelomer alcohol 8+2; 80 mg/kg; oral; Female; Harlan Sprague Dawley.
Data set [11] deals with Rat. Put plainly: concentration in plasma after dosing. The conditions noted are these: dosed: Fluorotelomer alcohol 8+2, 12 mg/kg, iv, Male, F344.
The subject of data set [12] is Rat. Put plainly: concentration in brain after dosing. Conditions: 3 h; dosed: Fluorotelomer alcohol 8+2; 24 mg/kg; oral; Male; Harlan Sprague Dawley.
Data set [13] relates to Rat. Put plainly: concentration in brain after dosing. Conditions: 6 h; dosed: Fluorotelomer alcohol 8+2; 24 mg/kg; oral; Male; Harlan Sprague Dawley.
The subject of data set [14] is Rat. The experiment in a line: concentration in liver after dosing. The conditions noted are these: 6 h; dosed: Fluorotelomer alcohol 8+2; 24 mg/kg; oral; Male; Harlan Sprague Dawley.
Data set [15] concerns Rat. The experiment in a line: concentration in plasma after dosing. Conditions: 20 min; dosed: Di-n-butyl phthalate; 50 mg/kg; oral; Male; Sprague-Dawley.
Data set [16] has as its system Rat. The experiment in a line: concentration in plasma after dosing. The conditions noted are these: 4 h; dosed: Di-n-butyl phthalate; 20 mg/kg; iv; Male; Sprague-Dawley.
In data set [17] the test system is Rat. The experiment in a line: concentration in plasma after dosing. Conditions: 3 h; dosed: Di-n-butyl phthalate; 20 mg/kg; iv; Male; Sprague-Dawley.
Data set [18] has as its system Rat. The experiment in a line: concentration in liver after dosing. The conditions noted are these: 1848 h; dosed: Perfluorodecanoic acid; 10 mg/kg; oral; Male; Harlan Sprague Dawley.
The subject of data set [19] is Rat. The experiment in a line: concentration in kidney after dosing. The conditions noted are these: 24 h; dosed: Perfluorodecanoic acid; 10 mg/kg; oral; Female; Harlan Sprague Dawley.
The test system of data set [20] is Rat. Put plainly: concentration in liver after dosing. The conditions noted are these: 1 h; dosed: Perfluorodecanoic acid; 10 mg/kg; oral; Female; Harlan Sprague Dawley.
Data set [21] deals with Rat. Put plainly: concentration in plasma after dosing. The conditions noted are these: dosed: Perfluorodecanoic acid, 2 mg/kg, iv, Male, F344.
The test system of data set [22] is Rat. The experiment in a line: concentration in plasma after dosing. The conditions noted are these: 3 h; dosed: Primidone; 130 mg/kg; oral; Female; F344.
The test system of data set [23] is Rat. Put plainly: concentration in plasma after dosing. Conditions: 20 min; dosed: Thiodiglycolic Acid; 20 mg/kg; iv; Female; Harlan Sprague Dawley.
Data set [24] deals with Rat. Put plainly: concentration in plasma after dosing. Conditions: dosed: dichloroacetic acid, 10 mg/kg, oral, Male, Harlan Sprague Dawley.
The subject of data set [25] is Rat. Put plainly: concentration in plasma after dosing. Conditions: 5 min; dosed: dichloroacetic acid; 10 mg/kg; iv; Male; F344.

Regarding `Cc1cccc(Nc2cc(Cl)nc(SCC(=O)O)n2)c1C`, the concentration in plasma in [1] (1 h) was 513 ng/mL; in data set [1] (6 h) it was 169 ng/mL; in data set [2] it was 4730 ng/mL; in data set [3] (0.5 h) it was 1970 ng/mL; in data set [3] (10 h) it was 150 ng/mL.
For `ClCCOCOCCCl` [Bis 2-Chloroethoxy Methane], the concentration in plasma is 16.9 ng/mL in [4]; 282 ng/mL in data set [6]; 65.2 ng/mL in data set [7]; 4820 ng/mL in data set [8] (1 h); 15.4 ng/mL in data set [8] (9.667 h). Besides, the concentration in heart in data set [5] came out at 119 ng/g. Moreover, the concentration in thymus in [9] turned out to be 16300 ng/g.
On to `OCCC(F)(F)C(F)(F)C(F)(F)C(F)(F)C(F)(F)C(F)(F)C(F)(F)C(F)(F)F` [Fluorotelomer alcohol 8+2], for which the concentration in brain in data set [10] came to 164 ng/g; in data set [12], 1780 ng/g; in [13] it was 544 ng/g. The concentration in plasma in data set [11] (5 min) worked out at 3710 ng/mL; in [11] (3 h) it was 125 ng/mL. Further, in data set [14], the concentration in liver came out at 1220 ng/g.
Turning to `CCCCOC(=O)c1ccccc1C(=O)O` [Mono-n-butyl phthalate], the concentration in plasma in data set [15] is 16800 ng/mL; in data set [16], 726 ng/mL; in data set [17], 1640 ng/mL.
Regarding `O=C(O)C(F)(F)C(F)(F)C(F)(F)C(F)(F)C(F)(F)C(F)(F)C(F)(F)C(F)(F)C(F)(F)F` [Perfluorodecanoic acid], the values for the concentration in liver in data set [18] and in data set [20] were 27600 ng/g and 48900 ng/g, respectively. Further, the concentration in kidney in [19] was determined as 67300 ng/g. Also, the concentration in plasma was 7330 ng/mL in data set [21] (5 min), 3130 ng/mL in data set [21] (192 h) and 200 ng/mL in [21] (2520 h).
As to `CCC1(c2ccccc2)C(=O)NC(=O)NC1=O` [Phenobarbital], the concentration in plasma in [22] came out at 5510 ng/mL.
As for `O=C(O)CSCC(=O)O` [Thiodiglycolic Acid], the concentration in plasma in [23] is 11700 ng/mL.
Consider `O=C(O)C(Cl)Cl` [dichloroacetic acid], for which the concentration in plasma in data set [24] (2 min) stood at 398 ng/mL; in data set [24] (0.5 h) it was 637 ng/mL; in data set [25], 12400 ng/mL.

The values above are taken from EPA's CvTdb concentration-time database.
